Data set [1] deals with TYK2 protein (His-TVMV-TYK2 JH2 (575-869)) (Homo sapiens (Human), UniProt P29597). Briefly: Tyk2 JH2 enzymatic activity assay (HTRF, fluorescein-labeled kinase tracer). The data set is classed as binding. The following applies: 90 minutes at room temperature. As to the method:
The assay system was incubated at room temperature for 90 minutes. The resulting HTRF (homogeneous time-resolved fluorescence) signal, i.e., the ratio of the fluorescence intensity of the fluorescein acceptor (520 nm) and the terbium donor (495 nm) at the emission wavelength, was then measured on an Envision plate reader, and based on this, the IC50 value was calculated.

Data set [2] deals with IFNα-stimulated phosphorylated STAT1. Description: Assay of IFNα-stimulated phosphorylated STAT1 in hPBMC (flow cytometry, CD4+ T cells). The class given is cell-based, Human. The settings on record: IFN-α 1000 U/ml, pSTAT1 in CD4+ T cells. As to the method: Human peripheral blood mononuclear cells (hPBMC) were plated at a cell density of 1×10^5 cells/well and placed in a 37° C. incubator for 90 minutes. Different concentrations of compounds were then added to the cells, wherein the concentration of each compound started from […] and was serially diluted 5-fold to a total of 8 concentrations. Compounds and cells were incubated at 37° C. for 30 minutes. IFN-α (1000 U/ml) was used to stimulate hPBMC, and then flow cytometry was used to detect the level of phosphorylated STAT1 in CD4+ T cells to evaluate the inhibitory activity of compounds on the IFN-α pathway.
For orientation: In flow cytometry, cells or beads pass a laser one at a time.

The nature of data set [3]: Pharmacokinetics of the compound in Balb/c mice. The settings on record: mouse, plasma, male Balb/c mice, fasted; for AUC: read-out: AUC (exposure). The data set is classed as in vivo. As to the method:
• Purpose of assay: To assay the pharmacokinetics of the compound in Balb/c mice • Assay materials: Male Balb/c mice, fasted
The pharmacokinetic profiles of compound 1 in rodents after intravenous injection and oral administration were assayed using standard protocols.
Acclimatization/quarantine of Balb/c mice was performed for at least 3 days after arrival at the facility. Upon completion of the acclimatization/quarantine, a veterinarian or designee examined the health status of the Balb/c mice to evaluate whether the animals were suitable for the assay study. All Balb/c mice were fasted overnight before administration and resumed feeding 4 hours after administration. In the assay, the candidate compound was formulated into a homogeneous solution and given to Balb/c mice via a single intravenous injection and oral administration. The intravenous vehicle was a clear solution of 80% polyethylene glycol 400/20% water and the oral vehicle was a homogeneous suspension of ethanol/vitamin E polyethylene glycol succinate/polyethylene glycol 300 (5/5/90). The animals were weighed before administration and the administered volume was calculated based on body weight. Whole blood samples were collected by means of jugular vein puncture within 24 hours. All blood samples were immediately transferred to labeled commercial centrifuge tubes containing K2-EDTA. After blood samples were collected, the blood samples were centrifuged at 3200 g for 10 minutes at 4° C. The supernatant plasma was aspirated, quickly placed on dry ice, and then stored at −60° C. or lower for LC-MS/MS analysis. The data of blood drug concentration-time were analyzed using the WinNonlin software package (Version 6.3 and above) using a non-compartmental model. Pharmacokinetic parameters were calculated, including (if data permitted), but not limited to, peak concentration (Cmax), time to peak (Tmax), elimination half-life (T 1/2), area under plasma concentration-time curve (AUC), mean retention time (MRT), bioavailability, etc.

Each structure is given as a SMILES string. Where a name gives a salt, the structure may show the parent alone. Read-outs that look alike come from different tables or passages of the source.

Consider 31 compounds from patent US20240376093A1, “SULFOXIMINE COMPOUND AND USE THEREOF” (MEDSHINE DISCOVERY INC., priority 2021, published 2024).

TYK2 protein (His-TVMV-TYK2 JH2 (575-869)), sequence (P29597 575-869, species assumed): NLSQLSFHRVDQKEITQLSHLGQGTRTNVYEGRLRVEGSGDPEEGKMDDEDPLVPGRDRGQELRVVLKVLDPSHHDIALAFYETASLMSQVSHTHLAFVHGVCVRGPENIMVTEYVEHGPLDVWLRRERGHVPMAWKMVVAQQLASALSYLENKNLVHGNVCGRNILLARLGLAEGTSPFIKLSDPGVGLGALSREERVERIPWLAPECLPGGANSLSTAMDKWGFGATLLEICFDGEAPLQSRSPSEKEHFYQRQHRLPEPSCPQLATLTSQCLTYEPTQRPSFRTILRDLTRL

For `[2H]C([2H])([2H])CC(=O)c1cnc(NC(=O)C2CCC2)cc1Nc1cccc(-c2cnc(N=S(C)(C)=O)cn2)c1OC` [Compound 14], the IC50 (in general, the concentration needed to halve the response being measured) in data set [1] is 0.25 nM. The compound `[2H]C([2H])([2H])CC(=O)c1cnc(NC(=O)C2CC2)cc1Nc1cc(C)cc(-c2cnc(N=S(C)(C)=O)cn2)c1OC` [Compound 21] showed an IC50 in data set [1] of 0.13 nM. For the compound `[2H]C([2H])([2H])CC(=O)c1cnc(NC(=O)C2CC2)cc1Nc1cccc(-c2cnc(N=S(C)(C)=O)cn2)c1OC` [Compound 9], the IC50 was 0.07 nM in data set [1] and 0.5 nM in data set [2]. With `[2H]C([2H])([2H])CC(=O)c1cnc(Nc2cc3cc[nH]c3cn2)cc1Nc1cccc(-c2cnc(N=S(C)(C)=O)cn2)c1OC` [Compound 29], 0.11 nM corresponded to half-maximal inhibition in data set [1] (IC50). Consider `[2H]C([2H])([2H])CC(=O)c1cnc(NC(=O)C2CC2)cc1Nc1cccc(-c2cnc(N=S(C)(C)=O)cn2)c1OC` [Compound 1], for which 1.1 nM corresponded to half-maximal inhibition in data set [2] (IC50). In addition, the AUC (commonly the area under the concentration-time curve, a measure of exposure) is 9.38 µM·h in data set [3] (IV (1 mg/kg)) and 47.2 µM·h in data set [3] (PO (10 mg/kg)). Moreover, the clearance (commonly the rate of elimination divided by the concentration) in data set [3] (IV (1 mg/kg), read-out: Cl (clearance rate)) amounted to 3.39 mL/min/kg. For the same compound, the half-life in data set [3] (IV (1 mg/kg), read-out: T1/2 (half-life) (converted)) is 1.61 h. For the same compound, the Vd – broadly, the apparent volume that relates the amount in the body to the concentration in plasma or blood – in data set [3] (IV (1 mg/kg), read-out: Vd (volume of distribution)) was 0.45 L/kg. Moreover, in data set [3] (PO (10 mg/kg), read-out: Cmax (maximum concentration)), the Cmax is 13.4 µM. In data set [3] (PO (10 mg/kg), read-out: F (bioavailability)), the bioavailability – broadly, the share of a dose that reaches the circulation, judged against a reference dose that is usually intravenous – was determined as 51.4%. In addition, the Tmax in data set [3] (PO (10 mg/kg), read-out: Tmax (time to peak concentration)) worked out at 0.75 h. Consider `[2H]C([2H])([2H])CC(=O)c1cnc(NC(=O)C23CC(C2)C3)cc1Nc1cccc(-c2cnc(N=S(C)(C)=O)cn2)c1OC` [Compound 30], for which the IC50 in data set [1] was found to be 0.56 nM. Still for that read-out and setting: as for `COc1c(Nc2cc(NC(=O)C3CC3)ncc2C(C)=O)cccc1-c1cnc(N=S(C)(C)=O)cn1` [Compound 18], the figure is 0.09 nM; as for `[2H]C([2H])([2H])CC(=O)c1cnc(NC(=O)C2CC3(CCC3)C2)cc1Nc1cccc(-c2cnc(N=S(C)(C)=O)cn2)c1OC` [Compound 32], 0.31 nM; as for `[2H]C([2H])([2H])CC(=O)c1cnc(Nc2ccn(C)c(=O)c2)cc1Nc1cccc(-c2cnc(N=S(C)(C)=O)cn2)c1OC` [Compound 35], 0.76 nM.

`[2H]C([2H])([2H])CC(=O)c1cnc(NC(=O)C2CC2)cc1Nc1cc(OC)cc(-c2cnc(N=S(C)(C)=O)cn2)c1OC` [Compound 22 hydrochloride] gave an IC50 in data set [1] of 0.14 nM.

Turning to `[2H]C([2H])([2H])CC(=O)c1cnc(NC(=O)C2CC2)cc1Nc1cccc(-c2cnc(N=S3(=O)CCCC3)cn2)c1OC` [Compound 7], in data set [1], the IC50 amounted to 0.09 nM. For the compound `[2H]C([2H])([2H])CC(=O)c1cnc(Nc2cccc(C#N)n2)cc1Nc1cccc(-c2cnc(N=S(C)(C)=O)cn2)c1OC` [Compound 12], in data set [1], the IC50 turned out to be 0.05 nM. Take `[2H]C([2H])([2H])NC(=O)c1nnc(NC(=O)C2CC2)cc1Nc1cccc(-c2cnc(N=S(C)(C)=O)cn2)c1OC` [Compound 2]: the IC50 in data set [1] was determined as 0.06 nM; in data set [2] (Homo sapiens, CD4+ T), 0.2 nM. In data set [1], `[2H]C([2H])([2H])CC(=O)c1cnc(NC(=O)NC2CC2)cc1Nc1cccc(-c2cnc(N=S(C)(C)=O)cn2)c1OC` [Compound 23] showed an IC50 of 0.13 nM. As for `COCC(=O)c1cnc(NC(=O)C2CC2)cc1Nc1cccc(-c2cnc(N=S(C)(C)=O)cn2)c1OC` [Compound 17], the half-inhibitory concentration (IC50) in data set [1] came out at 0.29 nM.

In data set [1], `[2H]C([2H])([2H])CC(=O)c1cnc(NC(=O)C2C3COCC32)cc1Nc1cccc(-c2cnc(N=S(C)(C)=O)cn2)c1OC` (centres unmarked) [Compound 31] yielded an IC50 of 0.34 nM.

`[2H]C([2H])([2H])CC(=O)c1cnc(NC(=O)C2CC2)cc1Nc1cccc(-c2cnc(N=S3(=O)CCC3)cn2)c1OC` [Compound 6] had a concentration for half-maximal inhibition (IC50) in data set [1] of 0.18 nM. Still for that read-out and setting: the same measure for `[2H]C([2H])([2H])CC(=O)c1cnc(NC(=O)C2CC2)cc1Nc1nccc(-c2cnc(N=S(C)(C)=O)cn2)c1OC` [Compound 16]: 0.08 nM.

Take `[2H]C([2H])([2H])CC(=O)c1cnc(Nc2ccccn2)cc1Nc1cccc(-c2cnc(N=S(C)(C)=O)cn2)c1OC` [Compound 10]: the IC50 in data set [1] worked out at 0.06 nM.

In data set [1], `[2H]C([2H])([2H])CC(=O)c1cnc(Nc2ccc(F)cn2)cc1Nc1cccc(-c2cnc(N=S(C)(C)=O)cn2)c1OC` [Compound 11] registered a concentration for half-maximal inhibition (IC50) of 0.11 nM. Compound `[2H]C([2H])([2H])CC(=O)c1cnc(Nc2cncc(C)n2)cc1Nc1cccc(-c2cnc(N=S(C)(C)=O)cn2)c1OC` [Compound 13] came in with a half-inhibitory concentration (IC50) in data set [1] of 0.12 nM. `[2H]C([2H])([2H])CC(=O)c1cnc(NC(=O)c2cn[nH]c2)cc1Nc1cccc(-c2cnc(N=S(C)(C)=O)cn2)c1OC` [Compound 28] gave an IC50 in data set [1] of 0.17 nM. Still for that read-out and setting: as for `[2H]C([2H])([2H])CC(=O)c1cnc(NC(=O)C2CC2)cc1Nc1cccc(-c2cnc(N=S(=O)(CC)CC)cn2)c1OC` [Compound 27], the figure is 0.09 nM; as for `COc1c(Nc2cc(NC(=O)C3CC3)ncc2C(=O)C2CC2)cccc1-c1cnc(N=S(C)(C)=O)cn1` [Compound 19], 0.12 nM. In the case of `CCC(=O)c1cnc(NC(=O)C2CC2)cc1Nc1cccc(-c2cnc(N=S(C)(C)=O)cn2)c1OC` [Compound 4], the IC50 came to 0.07 nM in data set [1] and 0.6 nM in data set [2] (Homo sapiens, CD4+ T). Take `[2H]C([2H])([2H])NC(=O)c1cnc(NC(=O)C2CC2)cc1Nc1cccc(-c2cnc(N=S(C)(C)=O)cn2)c1OC` [Compound 3]: the IC50 in data set [1] was 0.03 nM; in data set [2] (Homo sapiens, CD4+ T) it was 2.1 nM. As for `[2H]C([2H])([2H])CC(=O)c1cnc(NC(=O)C2CC2)cc1Nc1cc(F)cc(-c2cnc(N=S(C)(C)=O)cn2)c1OC` [Compound 15], in data set [1], the IC50 turned out to be 0.08 nM. `[2H]C([2H])([2H])CC(=O)c1cnc(NC(=O)C2CC2)cc1Nc1cccc(-c2cnc(N=S3(=O)CCOCC3)cn2)c1OC` [Compound 5] returned an IC50 in data set [1] of 0.07 nM. On the same count and under the same terms, the same measure for `[2H]C([2H])([2H])CC(=O)c1cnc(NC(=O)N2CCC2)cc1Nc1cccc(-c2cnc(N=S(C)(C)=O)cn2)c1OC` [Compound 20]: 0.19 nM. Regarding `[2H]C([2H])([2H])CC(=O)c1cnc(NC(=O)C2CC2)cc1Nc1cccc(-c2cnc(N=S3(=O)CCN(C)CC3)cn2)c1OC` [Compound 8], the IC50 in data set [1] is 0.15 nM; in data set [2] (Homo sapiens, CD4+ T), 0.4 nM.

`[2H]C([2H])([2H])CC(=O)c1cnc(NC(=O)C2CC3CCC2C3)cc1Nc1cccc(-c2cnc(N=S(C)(C)=O)cn2)c1OC` (centres unmarked) [Compound 33] came in with a concentration for half-maximal inhibition (IC50) in data set [1] of 0.3 nM.
